{"source": "patent US20230226070A1", "about": "“TREATMENT OF THROMBOSIS AND ASSOCIATED DISORDERS WITH AN ANTI-PLATELET AGENT” (THE HEART RESEARCH INSTITUTE LTD, priority 2020, published 2023)", "key": {"tail bleeding": {"test_system": "tail bleeding", "experiment": "3 mm tail lop (tail transection) bleeding assay", "description": "Bleeding was assessed using a 3 mm tail lop assay. Drug treatments (bolus) were administered 10 min before the start of tail bleeding. When a 30 min infusion was used, the tail bleeding experiment began as soon as the infusion finished. Following drug administration, a 3 mm long section of the tail tip was removed using a scalpel blade and the tail tip immersed in warmed saline. Bleeding was monitored until cessation and the time recorded. […] If the tail did re-bleed, length of time of rebleeding was also recorded. The experiment was ended when bleeding had ceased for at least 2 min, or at 30 min post-tail tip removal. Haemoglobin was quantified using 2 methods [(i, ii) using Abs 575 nm; (iii) using a colorimetric haemoglobin assay, as per the manufacturer's instructions (Sigma Aldrich, Haemoglobin Assay Kit MAK115)]. The treatment dosing regimens were as follows: rtPA (10 mg/kg: 1 mg/kg bolus, 9 mg/kg infusion over 30 min); Integrilin (1-10 mg/kg, bolus every 15 minutes); TGX221 (2.5 mg/kg; single bolus 15 minutes prior to lop); Arg—argatroban (80 ug/kg bolus; 40 ug/kg/min infusion 60). […] Data are presented as mean±SEM.\nIn addition, 15 minutes following commencement of treatment administration, tail transection (3 mm) was performed, and the tail tip immersed in warm (37° C.) saline to allow for blood collection from the tail (as described under “Methods”). Flow of blood was assessed over 30 minutes and any periods of blood flow cessation and rebleeding noted. Blood monitoring and collection was ceased at 30 minutes after lop, for all mice. Haemoglobin content was assessed in the collected sample using a colorimetric haemoglobin assay, as per the manufacturer's instructions (Sigma Aldrich, Haemoglobin Assay Kit MAK115). Data was analysed using a one-way ANOVA relative to Vehicle. […] The bar graph depicts mean±SD, where ***P<0.0005, ^nsP>0.05."}, "mouse blood/platelets": {"test_system": "mouse blood/platelets", "experiment": "ADP-induced aggregation in PPACK-anticoagulated PRP (Integrilin dose-response)", "assay_type": "cell-based", "excerpt": "Data are presented as mean±SEM."}, "[1]": {"test_system": "ischaemic stroke after carotid artery thrombotic occlusion and contralateral stenosis", "assay_type": "in vivo"}, "[2]": {"test_system": "occlusive thrombus in the mouse carotid artery", "experiment": "carotid artery thrombosis model: occlusive thrombus formation induced by electrolytic injury, recanalisation classified from carotid blood flow", "assay_type": "in vivo, C57BL/6 male mice", "conditions": "for thrombolysis, recanalisation and vessel reocclusion (in words): dual therapy: antiplatelet agent 2.5 mg/kg together with rtPA 10 mg/kg; for comparative anti-platelet efficacy in vivo, TGX221 versus AZD6482: each 2.5 mg/kg combined with rtPA 10 mg/kg; for lysis of 4.5 hours aged clots (in words): treatment 270 min after occlusion, triple therapy versus rtPA/argatroban dual therapy; for recanalisation of older (aged) clots (in words): triple therapy: rtPA + argatroban + antiplatelet agent (2.5 mg/kg, 2x bolus), treatment 15, 120 or 270 min after occlusion"}}, "note": "Entries after “also recorded” stand apart in the source; their conditions may differ. Where a SMILES comes first, the peptide text is derived from it. Bridges are numbered along the chain shown (N, C = ends). [ ]: non-standard residue; d: D form. hArg = N=C(N)NCCCC[C@H](N)C(=O)O; Mpa = O=C(O)CCS"}
{"compound": "N=C(N)NCCCC[C@@H]1NC(=O)CCSSC[C@@H](C(N)=O)NC(=O)[C@@H]2CCCN2C(=O)[C@H](Cc2c[nH]c3ccccc23)NC(=O)[C@H](CC(=O)O)NC(=O)CNC1=O", "note": "[Integrilin, Eptifibatide, reference compound] ([Mpa][hArg]GDWPC-NH2; disulfide 1-7)", "values": [{"measurement": "tail bleeding / safety (in words)", "setting": "tail bleeding; triple therapy with rt-PA 10 mg/kg and argatroban", "result": "accompanied by an increase in bleeding"}, {"measurement": "inhibition of ADP-induced aggregation", "setting": "mouse blood/platelets; 3.0 mg/kg ('Stroke' dose)", "result": "approximately 60%"}, {"measurement": "inhibition of ADP-induced aggregation", "setting": "mouse blood/platelets; 4.0 mg/kg ('AMI' dose)", "result": "~80", "unit": "%"}, {"measurement": "stable recanalisation of the occluded carotid artery (in words)", "setting": "[1]; integrilin 4 mg/kg every 15 min with rtPA 10 mg/kg and argatroban", "result": "enhances stable recanalisation"}]}
{"compound": "Cc1cc([C@@H](C)Nc2ccccc2C(=O)O)c2nc(N3CCOCC3)cc(=O)n2c1", "note": "[AZD6482, (−)-2-({1R-[7-methyl-2-(morpholin-4-yl)-4-oxo-pyrido[1,2-a]pyrimidin-9-yl]ethyl}amino)benzoic acid]", "values": [{"measurement": "thrombolysis, recanalisation and vessel reocclusion (in words)", "setting": "[2]; 15 min after occlusion", "result": "improves thrombolysis and vessel reocclusion over and above that achieved with rtPA alone; also recorded: effectively enhancing recanalisation"}, {"measurement": "comparative anti-platelet efficacy in vivo, TGX221 versus AZD6482", "setting": "[2]", "result": "equipotent"}, {"measurement": "lysis of 4.5 hours aged clots (in words)", "setting": "[2]", "result": "benefit"}, {"measurement": "recanalisation of older (aged) clots (in words)", "setting": "[2]", "result": "improving recanalization of older clots"}]}
{"compound": "Cc1cc(C(C)Nc2ccccc2)c2nc(N3CCOCC3)cc(=O)n2c1", "note": "(racemic) [TGX221, (±)-7-methyl-2-morpholin-4-yl-9-(1-phenylaminoethyl)-pyrido[1,2-a]pyrimidin-4-one]", "values": [{"measurement": "thrombolysis, recanalisation and vessel reocclusion (in words)", "setting": "[2]; 15 min after occlusion", "result": "improves thrombolysis and vessel reocclusion over and above that achieved with rtPA alone; also recorded: effectively enhancing recanalisation"}, {"measurement": "comparative anti-platelet efficacy in vivo, TGX221 versus AZD6482", "setting": "[2]", "result": "equipotent"}, {"measurement": "lysis of 4.5 hours aged clots (in words)", "setting": "[2]", "result": "benefit"}, {"measurement": "recanalisation and reocclusion (in words)", "setting": "[2]; triple therapy: TGX221 2.5 mg/kg + argatroban + rtPA 10 mg/kg, 15 min after occlusion", "result": "improving recanalisation as well as reducing reocclusion"}, {"measurement": "recanalisation of older (aged) clots (in words)", "setting": "[2]", "result": "improving recanalization of older clots"}, {"measurement": "tail bleeding (in words)", "setting": "tail bleeding; administered alone (TGX221 2.5 mg/kg; Integrilin 3 mg/kg and above)", "result": "does not Increase Tail Bleeding"}, {"measurement": "tail bleeding (in words)", "setting": "tail bleeding; in combination with rt-PA (10 mg/kg; for TGX221 also up to 20 mg/kg)", "result": "promising bleeding profile"}, {"measurement": "vessel (carotid) recanalisation (in words)", "setting": "[1]; triple therapy: TGX221 2.5 mg/kg + argatroban + rtPA 10 mg/kg, 5 min after stroke onset", "result": "improved blood flow (recanalisation)"}, {"measurement": "cerebral perfusion (in words)", "setting": "[1]; triple therapy: TGX221 + argatroban + rtPA", "result": "improved cerebral reperfusion"}, {"measurement": "cerebral infarct (TTC staining, in words)", "setting": "[1]; triple therapy: TGX221 + argatroban + rtPA, 24 hours", "result": "reduced cerebral infarct"}]}
{"compound": "rtPA: recombinant tissue plasminogen activator, thrombolytic agent, purchased from Boehringer Ingelheim", "values": [{"measurement": "recanalisation category / re-thrombosis (in words)", "setting": "[2]; rt-PA monotherapy 10 mg/kg, 15 min after occlusion, 60 min monitoring", "result": "induces transient recanalisation"}, {"measurement": "clot lysis and recanalisation of the carotid, share of vessels", "setting": "[2]; rtPA 10 mg/kg i.v. alone, 15 min after occlusion, blood flow monitored 60 min", "result": "approximately 25%"}]}
